From patent publication US20230097157A1, “Bicyclic Pyridin-2-one and pyrimidin-4-one Derivatives Useful As a Factor XIa Inhibitors” (Janssen Pharmaceutica NV, priority 2021, published 2023)
Like-named read-outs stand apart in the source and are kept apart here.

Assays:
Factor XIa = Factor XIa (Homo sapiens, UniProt P03951); assay: Factor XIa inhibition assay (FLINT) utilizing a fluorophore-quencher pair peptide substrate 5Fam-[…]-K5Tamra; type: biochemical; conditions: kinetic (KIN) reads, read-out: FXIa KIN Inh IC50
Sequence of Factor XIa (P03951 388-625 limits assumed): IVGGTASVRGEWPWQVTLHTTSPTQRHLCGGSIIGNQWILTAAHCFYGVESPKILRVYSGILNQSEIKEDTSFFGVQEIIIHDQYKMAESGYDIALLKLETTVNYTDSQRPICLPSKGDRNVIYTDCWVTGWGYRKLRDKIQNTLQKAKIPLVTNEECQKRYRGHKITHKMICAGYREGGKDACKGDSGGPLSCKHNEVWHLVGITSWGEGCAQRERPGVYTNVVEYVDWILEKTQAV
Sequence of Factor XIa (P03951 19-387 partner limits assumed): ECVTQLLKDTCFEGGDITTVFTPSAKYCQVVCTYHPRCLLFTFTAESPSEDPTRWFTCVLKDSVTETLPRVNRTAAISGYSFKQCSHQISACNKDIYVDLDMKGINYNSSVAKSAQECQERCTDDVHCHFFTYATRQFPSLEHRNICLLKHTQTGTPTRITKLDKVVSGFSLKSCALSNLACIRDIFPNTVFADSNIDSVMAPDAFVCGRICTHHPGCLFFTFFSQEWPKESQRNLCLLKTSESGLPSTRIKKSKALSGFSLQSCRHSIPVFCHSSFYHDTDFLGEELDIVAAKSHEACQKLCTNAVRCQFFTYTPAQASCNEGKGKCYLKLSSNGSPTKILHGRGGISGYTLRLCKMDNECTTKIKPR
Outline: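 FXIa was preincubated with compound for 30 min at room temperature in Tris pH 7.5 buffer containing CaCl2, BSA and CHAPS, then reacted with 15 μM quenched 5Fam/Tamra peptide substrate. Fluorescence (485/520 nm) was read kinetically every 5 min for 30 min.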

human plasma kallikrein = human plasma kallikrein (Homo sapiens, UniProt P03952); assay: Kallikrein inhibition assay (FLINT) utilizing a quenched AMC peptide substrate Z-Gly-Pro-Arg-AMC; type: biochemical; conditions: kinetic (KIN) reads, read-out: Kallikrein KIN Inh IC50
Sequence of human plasma kallikrein (P03952 391-638 limits assumed): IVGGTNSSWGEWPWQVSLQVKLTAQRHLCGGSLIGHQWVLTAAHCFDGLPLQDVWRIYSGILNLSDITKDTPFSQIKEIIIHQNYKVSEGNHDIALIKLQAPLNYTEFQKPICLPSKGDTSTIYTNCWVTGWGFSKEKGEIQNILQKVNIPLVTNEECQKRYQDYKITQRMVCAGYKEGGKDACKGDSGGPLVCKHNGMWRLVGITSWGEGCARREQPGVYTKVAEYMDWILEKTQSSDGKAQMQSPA
Sequence of human plasma kallikrein (P03952 20-390 partner limits assumed): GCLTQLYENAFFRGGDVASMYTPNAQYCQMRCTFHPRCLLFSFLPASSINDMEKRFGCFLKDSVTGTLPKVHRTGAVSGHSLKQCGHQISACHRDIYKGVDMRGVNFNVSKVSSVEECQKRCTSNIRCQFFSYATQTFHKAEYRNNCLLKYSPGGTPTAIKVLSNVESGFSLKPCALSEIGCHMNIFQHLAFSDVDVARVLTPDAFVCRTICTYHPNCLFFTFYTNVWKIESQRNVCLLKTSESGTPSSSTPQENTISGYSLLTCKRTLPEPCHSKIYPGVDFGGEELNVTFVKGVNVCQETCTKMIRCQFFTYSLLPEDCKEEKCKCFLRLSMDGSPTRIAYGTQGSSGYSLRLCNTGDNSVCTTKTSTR
Outline: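 Human plasma kallikrein (2 nM final) pre-incubated 30 min with compound (11-point 3-fold series, top 1 μM, 2% DMSO), then 50 μM Z-Gly-Pro-Arg-AMC added. Buffer 50 mM Tris pH 7.5, 100 mM NaCl, 5 mM CaCl2, BSA, CHAPS. AMC fluorescence (340/440 nm) read kinetically over 30 min at room temperature, IC50 by 4-parameter logistic fit.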

Row | SMILES | IC50 (Factor XIa; values in nM) [nM] | IC50 (human plasma kallikrein; values in nM) [nM] | IC50 (Factor XIa; unit μM) [nM] | IC50 (human plasma kallikrein; unit μM) [nM]
1 | COC(=O)Nc1ccc(-c2cnc([C@H]3C[C@@H](C)c4nc(-c5c(-n6cnnn6)ccc(Cl)c5F)cc(=O)n43)[nH]2)cc1 (stereo in doubt) [Example 127, Methyl (4-(2-((6*R,8*R)-2-(3-Chloro-2-fluoro-6-(1H-tetrazol-1-yl)phenyl)-8-methyl-4-oxo-4,6,7,8-tetrahydropyrrolo[1,2-a]pyrimidin-6-yl)-1H-imidazol-5-yl)phenyl)carbamate] | 190 | 723 |  | 
2 | Cc1nc(N)c(F)cc1-c1cnc([C@H]2C[C@@H](C)c3nc(-c4c(-n5cnnn5)ccc(Cl)c4F)cc(=O)n32)[nH]1 (stereo in doubt) [Example 128, (6*R,8*R)-6-(5-(6-Amino-5-fluoro-2-methylpyridin-3-yl)-1H-imidazol-2-yl)-2-(3-chloro-2-fluoro-6-(1H-tetrazol-1-yl)phenyl)-8-methyl-7,8-dihydropyrrolo[1,2-a]pyrimidin-4(6H)-one] | 283 | 747 |  | 
3 | Cc1nc(N)c(F)cc1-c1cnc([C@@H]2C[C@H](C)c3nc(-c4c(-n5cnnn5)ccc(Cl)c4F)cc(=O)n32)[nH]1 (stereo in doubt) [Example 130, (6*S,8*S)-6-(5-(6-Amino-5-fluoro-2-methylpyridin-3-yl)-1H-imidazol-2-yl)-2-(3-chloro-2-fluoro-6-(1H-tetrazol-1-yl)phenyl)-8-methyl-7,8-dihydropyrrolo[1,2-a]pyrimidin-4(6H)-one] |  |  | > 10000 | > 10000
4 | C[C@H]1CC(c2ncc(-c3cnnn3C)[nH]2)n2c1nc(-c1c(-n3cnnn3)ccc(Cl)c1F)cc2=O (stereo in doubt) [Example 136, (6*S,8*S)-2-(3-Chloro-2-fluoro-6-(1H-tetrazol-1-yl)phenyl)-8-methyl-6-(5-(1-methyl-1H-1,2,3-triazol-5-yl)-1H-imidazol-2-yl)-7,8-dihydropyrrolo[1,2-a]pyrimidin-4(6H)-one] | 566 |  |  | > 10000
5 | C[C@@H]1C[C@H](c2ncc(-c3ccc(N)nc3F)[nH]2)n2c1nc(-c1c(-n3cnnn3)ccc(Cl)c1F)cc2=O (stereo in doubt) [Example 138, (6R*,8R*)-6-(5-(6-Amino-2-fluoropyridin-3-yl)-1H-imidazol-2-yl)-2-(3-chloro-2-fluoro-6-(1H-tetrazol-1-yl)phenyl)-8-methyl-7,8-dihydropyrrolo[1,2-a]pyrimidin-4(6H)-one] | 258 |  |  | 4300
6 | C[C@@H]1C[C@H](c2ncc(-c3ccnn3C)[nH]2)n2c1nc(-c1c(-n3cnnn3)ccc(Cl)c1F)cc2=O (stereo in doubt) [Example 143, (6R*,8R*)-2-(3-Chloro-2-fluoro-6-(1H-tetrazol-1-yl)phenyl)-8-methyl-6-(5-(1-methyl-1H-pyrazol-5-yl)-1H-imidazol-2-yl)-7,8-dihydropyrrolo[1,2-a]pyrimidin-4(6H)-one] |  |  | > 10000 | > 10000
7 | C[C@H]1C[C@@H](c2ncc(-c3ccnn3C)[nH]2)n2c1nc(-c1c(-n3cnnn3)ccc(Cl)c1F)cc2=O (stereo in doubt) [Example 144, (6S*,8S*)-2-(3-Chloro-2-fluoro-6-(1H-tetrazol-1-yl)phenyl)-8-methyl-6-(5-(1-methyl-1H-pyrazol-5-yl)-1H-imidazol-2-yl)-7,8-dihydropyrrolo[1,2-a]pyrimidin-4(6H)-one] | 62.1 | 246 |  | 
8 | Nc1ccc(-c2cnc(C3CCCCc4cc(-c5c(-n6cnnn6)ccc(Cl)c5F)cc(=O)n43)[nH]2)c(F)n1 (stereo not drawn) [Cmpd (IV), 6-(5-(6-amino-2-fluoropyridin-3-yl)-1H-imidazol-2-yl)-2-(3-chloro-2-fluoro-6-(1H-tetrazol-1-yl)phenyl)-7,8,9,10-tetrahydropyrido[1,2-a]azepin-4(6H)-one] | 48 | 160 |  | 
9 | CNC(=O)c1ccc(-c2cnc([C@@H]3C[C@H](C)c4cc(-c5c(-n6cnnn6)ccc(Cl)c5F)cc(=O)n43)[nH]2)cn1 [Example 12, 5-(2-((1S,3S)-7-(3-Chloro-2-fluoro-6-(1H-tetrazol-1-yl)phenyl)-1-methyl-5-oxo-1,2,3,5-tetrahydroindolizin-3-yl)-1H-imidazol-5-yl)-N-methylpicolinamide] | 63.7 | 205 |  | 
10 | C[C@H]1C[C@@H](c2ncc(-c3c(C#N)cnn3C)[nH]2)n2c1cc(-c1c(-n3cnnn3)ccc(Cl)c1F)cc2=O [Example 14, 5-(2-((1S,3S)-7-(3-Chloro-2-fluoro-6-(1H-tetrazol-1-yl)phenyl)-1-methyl-5-oxo-1,2,3,5-tetrahydroindolizin-3-yl)-1H-imidazol-5-yl)-1-methyl-1H-pyrazole-4-carbonitrile] | 189 |  |  | 4700
11 | C[C@H]1C[C@@H](c2ncc(-c3cc(N)nn3C)[nH]2)n2c1cc(-c1c(-n3cnnn3)ccc(Cl)c1F)cc2=O [Example 15, (1S,3S)-3-(5-(3-Amino-1-methyl-1H-pyrazol-5-yl)-1H-imidazol-2-yl)-7-(3-chloro-2-fluoro-6-(1H-tetrazol-1-yl)phenyl)-1-methyl-2,3-dihydroindolizin-5(1H)-one] | 165 |  |  | 3200
12 | C[C@H]1C[C@@H](c2ncc(-c3ccc(=O)[nH]c3)[nH]2)n2c1cc(-c1c(-n3cnnn3)ccc(Cl)c1F)cc2=O [Example 16, (1S,3S)-7-(3-Chloro-2-fluoro-6-(1H-tetrazol-1-yl)phenyl)-1-methyl-3-(5-(6-oxo-1,6-dihydropyridin-3-yl)-1H-imidazol-2-yl)-2,3-dihydroindolizin-5(1H)-one] | 78.1 | 447 |  | 
13 | Nc1ncc(-c2cnc([C@H]3CC4(CC4)c4cc(-c5c(-n6cnnn6)ccc(Cl)c5F)cc(=O)n43)[nH]2)s1 [Example 17, (R)-3′-(5-(2-Aminothiazol-5-yl)-1H-imidazol-2-yl)-7′-(3-chloro-2-fluoro-6-(1H-tetrazol-1-yl)phenyl)-2′,3′-dihydro-5′H-spiro[cyclopropane-1,1′-indolizin]-5′-one] | 890 |  |  | 9050

More lines, now with the values ahead:

Row | IC50 (Factor XIa; values in nM) [nM] | IC50 (human plasma kallikrein; values in nM) [nM] | IC50 (Factor XIa; unit μM) [nM] | IC50 (human plasma kallikrein; unit μM) [nM] | SMILES
14 | 0.5 | 3 |  |  | COC(=O)Nc1ccc(-c2cnc([C@@H]3C[C@H](C)c4nc(-c5c(-n6cnnn6)ccc(Cl)c5F)cc(=O)n43)[nH]2)cc1 (stereo in doubt) [Example 125, Methyl (4-(2-((6*S,8*S)-2-(3-Chloro-2-fluoro-6-(1H-tetrazol-1-yl)phenyl)-8-methyl-4-oxo-4,6,7,8-tetrahydropyrrolo[1,2-a]pyrimidin-6-yl)-1H-imidazol-5-yl)phenyl)carbamate]
15 | 0.3 | 3.4 |  |  | COC(=O)Nc1ccc(-c2cnc([C@@H]3C[C@@H](C)c4nc(-c5c(-n6cnnn6)ccc(Cl)c5F)cc(=O)n43)[nH]2)cc1 (stereo in doubt) [Example 126, Methyl (4-(2-((6*S,8*R)-2-(3-Chloro-2-fluoro-6-(1H-tetrazol-1-yl)phenyl)-8-methyl-4-oxo-4,6,7,8-tetrahydropyrrolo[1,2-a]pyrimidin-6-yl)-1H-imidazol-5-yl)phenyl)carbamate]
16 | 0.9 | 25.9 |  |  | C[C@H]1C[C@@H](c2ncc(-c3ccc(N)nc3F)[nH]2)n2c1nc(-c1c(-n3cnnn3)ccc(Cl)c1F)cc2=O (stereo in doubt) [Example 150, (6S*,8S*)-6-(5-(6-Amino-2-fluoropyridin-3-yl)-1H-imidazol-2-yl)-2-(3-chloro-2-fluoro-6-(1H-tetrazol-1-yl)phenyl)-8-methyl-7,8-dihydropyrrolo[1,2-a]pyrimidin-4(6H)-one]
17 | 6.9 | 38 |  |  | O=c1cc(-c2c(-n3cnnn3)ccc(Cl)c2F)cc2n1[C@H](c1ncc(-c3ccnc(CO)c3F)[nH]1)CC21CC1 [Example 7, (S)-7′-(3-Chloro-2-fluoro-6-(1H-tetrazol-1-yl)phenyl)-3′-(5-(3-fluoro-2-(hydroxymethyl)pyridin-4-yl)-1H-imidazol-2-yl)-2′,3′-dihydro-5′H-spiro[cyclopropane-1,1′-indolizin]-5′-one]
18 | 2.2 | 11.4 |  |  | C[C@H]1C[C@@H](c2ncc(-c3ccc(NS(C)(=O)=O)cc3)[nH]2)n2c1cc(-c1c(-n3cnnn3)ccc(Cl)c1F)cc2=O [Example 11, N-(4-(2-((1S,3S)-7-(3-chloro-2-fluoro-6-(1H-tetrazol-1-yl)phenyl)-1-methyl-5-oxo-1,2,3,5-tetrahydroindolizin-3-yl)-1H-imidazol-5-yl)phenyl)methanesulfonamide]
19 | 12.7 | 36.9 |  |  | CNC(=O)c1cc(-c2cnc([C@@H]3C[C@H](C)c4cc(-c5c(-n6cnnn6)ccc(Cl)c5F)cc(=O)n43)[nH]2)ccn1 [Example 13, 4-(2-((1S,3S)-7-(3-Chloro-2-fluoro-6-(1H-tetrazol-1-yl)phenyl)-1-methyl-5-oxo-1,2,3,5-tetrahydroindolizin-3-yl)-1H-imidazol-5-yl)-N-methylpicolinamide]
20 | 9.1 | 105 |  |  | Nc1ncc(-c2cnc([C@@H]3CC4(CC4)c4cc(-c5c(-n6cnnn6)ccc(Cl)c5F)cc(=O)n43)[nH]2)s1 [Example 18, (S)-3′-(5-(2-Aminothiazol-5-yl)-1H-imidazol-2-yl)-7′-(3-chloro-2-fluoro-6-(1H-tetrazol-1-yl)phenyl)-2′,3′-dihydro-5′H-spiro[cyclopropane-1,1′-indolizin]-5′-one]
21 | 25.4 | 270 |  |  | C[C@H]1C[C@@H](c2ncc(-c3cc(N)ncc3F)[nH]2)n2c1cc(-c1c(-n3cnnn3)ccc(Cl)c1F)cc2=O [Example 19, (1S,3S)-3-(5-(2-Amino-5-fluoropyridin-4-yl)-1H-imidazol-2-yl)-7-(3-chloro-2-fluoro-6-(1H-tetrazol-1-yl)phenyl)-1-methyl-2,3-dihydroindolizin-5(1H)-one]
